Test results published in PubChem BioAssay AID248 (DTP/NCI, 2004).
Where “and” joins values, the source holds several entries; their conditions need not be identical. Equal entries are not always repeated. Toxic doses and inconclusive results are not listed. Rule as the data show it: active = T/C of 150% or more; inactive = T/C below 125%.

System: L1210 leukemia ip in BDF1 mice, survival T/C
Assay: NCI In Vivo Anticancer Drug Screen. Data for tumor model L1210 Leukemia (intraperitoneal) in B6D2F1 (BDF1) mice
Settings: endpoint: mean survival time, higher = longer survival
In short: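 In this screen, tumor-bearing mice given compound are compared to those given vehicle, and their survival values are reported as a treated-to-control quotient.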

[1] = dose: 100.0 mg/kg/injection, schedule: Q04DX002 (ip), vehicle: saline with Tween-80
[2] = dose: 100.0 mg/kg/injection, schedule: Q04DX003 (ip), vehicle: gum acacia
[3] = dose: 200.0 mg/kg/injection, schedule: Q04DX003 (ip), vehicle: gum acacia
[4] = dose: 400.0 mg/kg/injection, schedule: Q04DX003 (ip), vehicle: gum acacia
[5] = dose: 100.0 mg/kg/injection, schedule: Q04DX003 (ip), vehicle: Klucel (hydroxypropylcellulose) (HPC)
[6] = dose: 200.0 mg/kg/injection, schedule: Q04DX003 (ip), vehicle: Klucel (hydroxypropylcellulose) (HPC)
[7] = dose: 100.0 mg/kg/injection, schedule: Q01DX009 (ip), vehicle: Klucel (hydroxypropylcellulose) (HPC)
[8] = dose: 200.0 mg/kg/injection, schedule: Q01DX009 (ip), vehicle: Klucel (hydroxypropylcellulose) (HPC)
[9] = dose: 400.0 mg/kg/injection, schedule: Q01DX009 (ip), vehicle: Klucel (hydroxypropylcellulose) (HPC)

Measured: T/C

CC1CC(C)OC2(CCCc3ccccc32)O1 (stereo not drawn)
inactive: [1] 104 % of control | dose: 200.0 mg/kg/injection, schedule: Q04DX002 (ip), vehicle: saline with Tween-80 100 % of control | dose: 400.0 mg/kg/injection, schedule: Q04DX002 (ip), vehicle: saline with Tween-80 104 % of control

O=C(O)C(=O)Nc1ncn[nH]1
inactive: dose: 6.25 mg/kg/injection, schedule: Q01DX009 (ip), vehicle: Klucel (hydroxypropylcellulose) (HPC) 104 % of control | dose: 12.5 mg/kg/injection, schedule: Q01DX005 (ip), vehicle: Klucel (hydroxypropylcellulose) (HPC) 102 % of control | dose: 12.5 mg/kg/injection, schedule: Q01DX009 (ip), vehicle: Klucel (hydroxypropylcellulose) (HPC) 96 % of control and 104 % of control | dose: 25.0 mg/kg/injection, schedule: Q01DX009 (ip), vehicle: Klucel (hydroxypropylcellulose) (HPC) 100 % of control and 104 % of control | dose: 50.0 mg/kg/injection, schedule: Q01DX005 (ip), vehicle: Klucel (hydroxypropylcellulose) (HPC) 105 % of control and 106 % of control | dose: 50.0 mg/kg/injection, schedule: Q01DX009 (ip), vehicle: Klucel (hydroxypropylcellulose) (HPC) 107 % of control and 114 % of control | dose: 100.0 mg/kg/injection, schedule: Q04DX002 (ip), vehicle: Klucel (hydroxypropylcellulose) (HPC) 96 % of control | dose: 200.0 mg/kg/injection, schedule: Q04DX002 (ip), vehicle: Klucel (hydroxypropylcellulose) (HPC) 98 % of control

CC(C)SCC(N)CO (stereo not drawn)
inactive: dose: 12.5 mg/kg/injection, schedule: Q01DX009 (ip), vehicle: water 96 % of control | dose: 25.0 mg/kg/injection, schedule: Q01DX009 (ip), vehicle: water 96 % of control and 117 % of control | dose: 50.0 mg/kg/injection, schedule: Q01DX009 (ip), vehicle: water 99 % of control and 120 % of control | dose: 100.0 mg/kg/injection, schedule: Q01DX009 (ip), vehicle: water 100 % of control and 104 % of control | dose: 200.0 mg/kg/injection, schedule: Q01DX009 (ip), vehicle: water 108 % of control

COc1ccc(C(=O)c2ccc(Cl)s2)cc1
inactive: [2] 96 % of control | [3] 91 % of control | [4] 89 % of control

O=C(O)C1(O)C(Cl)(Cl)C(Cl)=C(Cl)C1(Cl)Cl
inactive: dose: 50.0 mg/kg/injection, schedule: Q01DX009 (ip), vehicle: saline sonified 103 % of control | dose: 50.0 mg/kg/injection, schedule: Q04DX003 (ip), vehicle: Klucel (hydroxypropylcellulose) (HPC) 92 % of control | dose: 100.0 mg/kg/injection, schedule: Q01DX009 (ip), vehicle: saline sonified 105 % of control | [5] 97 % of control and 100 % of control | [6] 111 % of control

O=C(Nc1ccc(F)cc1)Oc1ccc(OCc2ccccc2)cc1
inactive: dose: 100.0 mg/kg/injection, schedule: Q01DX001 (ip), vehicle: carboxymethylcellulose (CMC) 95 % of control | dose: 100.0 mg/kg/injection, schedule: Q01DX009 (ip), vehicle: carboxymethylcellulose (CMC) 99 % of control and 103 % of control | dose: 100.0 mg/kg/injection, schedule: Q04DX002 (ip), vehicle: carboxymethylcellulose (CMC) 93 % of control and 98 % of control | dose: 200.0 mg/kg/injection, schedule: Q01DX001 (ip), vehicle: carboxymethylcellulose (CMC) 101 % of control | dose: 200.0 mg/kg/injection, schedule: Q01DX009 (ip), vehicle: carboxymethylcellulose (CMC) 95 % of control and 99 % of control | dose: 200.0 mg/kg/injection, schedule: Q04DX002 (ip), vehicle: carboxymethylcellulose (CMC) 98 % of control and 100 % of control | dose: 400.0 mg/kg/injection, schedule: Q01DX001 (ip), vehicle: carboxymethylcellulose (CMC) 101 % of control | dose: 400.0 mg/kg/injection, schedule: Q01DX009 (ip), vehicle: carboxymethylcellulose (CMC) 95 % of control and 91 % of control | dose: 400.0 mg/kg/injection, schedule: Q04DX002 (ip), vehicle: carboxymethylcellulose (CMC) 96 % of control and 100 % of control

c1ccc2c(C3=NCCN3)ccc(C3=NCCN3)c2c1
inactive: dose: 15.0 mg/kg/injection, schedule: Q01DX Z (ip), vehicle: saline 100 % of control | dose: 30.0 mg/kg/injection, schedule: Q01DX Z (ip), vehicle: saline 101 % of control

CN(C)C(=O)O/N=C(\c1ccccc1)C(F)(F)F
inactive: dose: 0.5 mg/kg/injection, schedule: Q01DX001 (ip), vehicle: saline 103 % of control | dose: 1.0 mg/kg/injection, schedule: Q01DX001 (ip), vehicle: saline 102 % of control | dose: 2.0 mg/kg/injection, schedule: Q01DX001 (ip), vehicle: saline 97 % of control

Cc1ccc(NC(=O)C(Cl)(Cl)Cl)cc1Cl
inactive: [7] 112 % of control | [8] 106 % of control | [9] 109 % of control

NC(N)=N/N=C(/C=C/c1ccccc1)c1ccc(Cl)cc1
inactive: dose: 15.0 mg/kg/injection, schedule: Q01DX Z (ip), vehicle: carboxymethylcellulose (CMC) 92 % of control | dose: 30.0 mg/kg/injection, schedule: Q01DX Z (ip), vehicle: carboxymethylcellulose (CMC) 92 % of control | dose: 60.0 mg/kg/injection, schedule: Q01DX Z (ip), vehicle: carboxymethylcellulose (CMC) 95 % of control and 91 % of control | dose: 120.0 mg/kg/injection, schedule: Q01DX Z (ip), vehicle: carboxymethylcellulose (CMC) 101 % of control and 88 % of control | dose: 120.0 mg/kg/injection, schedule: Q01DX Z (oral), vehicle: carboxymethylcellulose (CMC) 96 % of control | dose: 240.0 mg/kg/injection, schedule: Q01DX Z (ip), vehicle: carboxymethylcellulose (CMC) 90 % of control | dose: 240.0 mg/kg/injection, schedule: Q01DX Z (oral), vehicle: carboxymethylcellulose (CMC) 100 % of control | dose: 480.0 mg/kg/injection, schedule: Q01DX Z (oral), vehicle: carboxymethylcellulose (CMC) 105 % of control | dose: 960.0 mg/kg/injection, schedule: Q01DX Z (oral), vehicle: carboxymethylcellulose (CMC) 102 % of control

O=N[O-].O=N[O-].[Co].[NH2-].[NH2-].[NH2-].[NH2-]
inactive: [1] 112 % of control

CN1c2ccc3ccccc3c2Sc2ccc3ccccc3c21
inactive: dose: 100.0 mg/kg/injection, schedule: Q01DX009 (ip), vehicle: acetone 100 % of control | dose: 100.0 mg/kg/injection, schedule: Q04DX003 (ip), vehicle: saline 94 % of control | dose: 200.0 mg/kg/injection, schedule: Q01DX009 (ip), vehicle: acetone 100 % of control | dose: 200.0 mg/kg/injection, schedule: Q04DX003 (ip), vehicle: saline 95 % of control | dose: 400.0 mg/kg/injection, schedule: Q01DX009 (ip), vehicle: acetone 88 % of control | dose: 400.0 mg/kg/injection, schedule: Q04DX003 (ip), vehicle: saline 97 % of control

CC1CCCCN1C(=O)Nc1cccc(C(F)(F)F)c1 (stereo not drawn)
inactive: dose: 100.0 mg/kg/injection, schedule: Q01DX001 (ip), vehicle: gum acacia 100 % of control and 103 % of control | dose: 100.0 mg/kg/injection, schedule: Q01DX009 (ip), vehicle: gum acacia 107 % of control | dose: 100.0 mg/kg/injection, schedule: Q04DX002 (ip), vehicle: gum acacia 93 % of control | [2] 100 % of control and 101 % of control | dose: 200.0 mg/kg/injection, schedule: Q01DX001 (ip), vehicle: gum acacia 95 % of control and 105 % of control | dose: 200.0 mg/kg/injection, schedule: Q01DX009 (ip), vehicle: gum acacia 106 % of control | dose: 200.0 mg/kg/injection, schedule: Q04DX002 (ip), vehicle: gum acacia 96 % of control and 98 % of control | [3] 95 % of control | dose: 400.0 mg/kg/injection, schedule: Q01DX001 (ip), vehicle: gum acacia 92 % of control and 102 % of control | dose: 400.0 mg/kg/injection, schedule: Q01DX009 (ip), vehicle: gum acacia 102 % of control | dose: 400.0 mg/kg/injection, schedule: Q04DX002 (ip), vehicle: gum acacia 93 % of control and 86 % of control | [4] 98 % of control and 100 % of control

COC(=O)c1ncn(/C=C/c2ccccc2)c1C(=O)O
inactive: [5] 92 % of control | [6] 91 % of control | dose: 400.0 mg/kg/injection, schedule: Q04DX003 (ip), vehicle: Klucel (hydroxypropylcellulose) (HPC) 87 % of control

CCC(C)N1C(=O)CCC1=O (stereo not drawn)
inactive: dose: 150.0 mg/kg/injection, schedule: Q01DX001 (ip), vehicle: saline 101 % of control | dose: 300.0 mg/kg/injection, schedule: Q01DX001 (ip), vehicle: saline 101 % of control | dose: 600.0 mg/kg/injection, schedule: Q01DX001 (ip), vehicle: saline 101 % of control

Cc1cc2oc(/C=N/Nc3ccc([N+](=O)[O-])cc3[N+](=O)[O-])c(C)c2cc1C
inactive: [7] 94 % of control | [8] 94 % of control | [9] 89 % of control
